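1) Cells in 96-well plates. 2) Compound, 48 h, 5 concentrations. 3) Linear interpolation between surrounding doses. 4) Unreached endpoint = highest concentration. GI50 is the concentration that inhibits growth by half. TGI denotes the concentration required for complete inhibition of growth.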
Tests used:
Test in all cases: DTP human tumour cell line panel, 48 h
[1] = test system: MCF7 breast
[2] = test system: SK-MEL-5 melanoma
[3] = test system: A498 renal
[4] = test system: SNB-75 CNS
[5] = test system: SR leukemia
[6] = test system: A549 NSCLC
[7] = test system: LOX IMVI melanoma
[8] = test system: SNB-19 CNS
[9] = test system: SF-268 CNS
[10] = test system: SK-MEL-28 melanoma

| Structure (SMILES) | TGI [1] [µM] | TGI [2] [µM] | TGI [3] [µM] | TGI [4] [µM] | TGI [5] [µM] | TGI [6] [µM] | TGI [7] [µM] | TGI [8] [µM] | TGI [9] [µM] | TGI [10] [µM] | GI50 [1] [µM] | GI50 [2] [µM] | GI50 [3] [µM] | GI50 [4] [µM] | GI50 [5] [µM] | GI50 [6] [µM] | GI50 [7] [µM] | GI50 [8] [µM] | GI50 [9] [µM] | GI50 [10] [µM] |
| --- | --- | --- | --- | --- | --- | --- | --- | --- | --- | --- | --- | --- | --- | --- | --- | --- | --- | --- | --- | --- |
| COc1cc2c(c(OC)c1OC)-c1ccc(OC)c(=O)cc1C(NC(=O)c1ccc(N=[N+]=[N-])cc1)CC2 (stereo not given) | > 100 | 1.95 | 0.0847 | > 90.8 | > 100 | > 100 | 24.9 | > 100 | > 100 | > 100 |  |  |  |  |  |  |  |  |  |  |
| O=C1OC(O)[C@@H]2[C@H]1[C@H]1CC[C@@H]2O1 (stereo not given in full) | > 100 | > 100 | 51.9 | > 100 | > 100 | > 100 | > 100 | > 100 | > 100 | > 94 | > 100 | 68.2 | 7.07 | 45.3 | > 100 | 60.8 | > 100 | > 100 | > 100 | > 58.2 |
| COC(=O)C1=C(C)NC(C)=C(C(=O)OCCCN2CCC(c3ccccc3)(c3ccccc3)CC2)C1c1cccc([N+](=O)[O-])c1 (stereo not given) | 3.74 | 3.16 | 8.69 | 9.84 | 4.5 | 3.41 | 3.2 | 3.24 | 3.47 | 3.39 |  |  |  |  |  |  |  |  |  |  |
| CCCCCCCC(=O)SCC/C=C/[C@@H]1CC(=O)NCc2cc(ccn2)C2=N[C@@](C)(CS2)C(=O)N[C@@H](C(C)C)C(=O)O1 | > 33.3 | 0.051 | 0.0418 | > 33.3 | > 33.3 |  | 0.0666 | > 33.3 | > 9.59 | 1.02 | 0.0377 | 0.0117 | 0.00591 | 0.0079 | 0.00845 | 0.0116 | 0.0172 | 0.109 | 0.0387 | 0.0125 |
| CC(=O)OC1=CC(n2cc(F)c(=O)[nH]c2=O)OC(C)C1=O (stereo not given) | > 76.2 | > 100 | > 44.9 | 99.5 | > 100 | > 63.1 | > 100 | > 100 | > 100 | > 100 |  |  |  |  |  |  |  |  |  |  |
| CC(C)C(C)/C=C\C(C)C1CCC2C3=CC=C4CC(O)CCC4(C)C3CCC21C (stereo not given) | > 100 | 62.3 | > 100 | > 73.1 | > 61.8 | > 100 | > 57.2 | > 100 | > 70.2 | > 60.5 |  |  |  |  |  |  |  |  |  |  |
| COc1ccc(/C=C(/C#N)n2nnc3cccc(F)c32)cc1 | > 100 | 5.46 | 4.1 | 0.638 | > 100 | > 100 | > 100 | 82.1 | > 100 | > 100 | 0.524 | 0.877 | 1.22 | 0.206 | 0.48 | 1.46 | 0.78 | 2.38 | 2.31 | 1.92 |
| Cc1cccc(NC(=O)Cn2cnc3sc(C(=O)OC(C)C)c(C)c3c2=O)c1 | > 50 | > 50 | > 50 | 39.5 | > 50 | > 50 | 35.9 | 38.6 | > 50 | > 50 | 38.2 | 20.7 | 16.1 | 17.5 | > 50 | 16.4 | 11.2 | 14.1 | 18.8 | 16.6 |
| Nc1ncnc2c1nnn2C1OC(CO)C(O)C1O (stereo not given) | 16.8 | 5.63 | 5.68 | 16.9 | > 12.7 | 19.2 | 3.77 | > 52.5 | 18.8 | 14.9 |  |  |  |  | 0.049 |  |  |  |  |  |
| COc1cc(/C=C/c2cc(O)c(C(C)=O)c(O)c2)cc2c1O[C@]1(C)CC[C@@H](O)C(C)(C)[C@H]1C2 | 22.2 | 22.3 | 48.3 | 27 | > 100 | > 100 | 13.3 | > 100 | 55.2 | 26.2 | 3.31 | 7.12 | 4.78 | 1.77 | 3.62 | 8.54 | 2.85 | 7.46 | 5.86 | 4.17 |
| Cc1cc(/C=C/c2ccc3cc(N(C)C)ccc3[n+]2C)c(C)n1-c1ccccc1 | 3.37 | 0.226 | 2.23 | 1.9 | 1.42 | 1.02 | 0.884 | 5.97 | 2.87 | 1.53 | 0.169 | 0.0835 | 0.286 | 0.211 | 0.0442 | 0.182 | 0.121 | 0.161 | 0.215 | 0.568 |
| COC1=CC(=O)C(C2CC(=O)c3c(O)cc(O)cc3O2)=CC1=O (stereo not given) | 42.3 | 31.7 | > 58 | 39.7 | 15.6 | > 72.6 | 30.9 | 68.2 | 38.7 | 31.4 |  |  |  |  |  |  |  |  |  |  |
| CCN1CCN(c2nc(C)cc(N(CCNc3ccnc4cc(Cl)ccc34)Cc3ccc4c(c3)OCO4)n2)CC1 | 5.89 | 3.17 | 5.71 | 2.9 | 3.71 | 8.19 | 3.35 | 10.2 | 5.81 | 3.42 | 1.98 | 1.74 | 1.9 | 1.35 | 1.33 | 2.4 | 1.77 | 3 | 2.09 | 1.79 |
| COc1cc(OC)cc(-c2cc(=O)c3c(OC)c(OC)c(OC)c(OC)c3o2)c1 | > 100 | 84 | 89.6 | > 100 | > 100 | > 100 | > 100 | > 100 | > 100 | > 100 |  |  |  |  |  |  |  |  |  |  |
| COc1ccc([C@H]2[C@@H](F)C(=O)N2c2cc(OC)c(OC)c(OC)c2)cc1F | > 100 | 0.35 | 8.08 | > 100 | > 100 | > 100 | > 100 | > 100 | > 100 | > 100 | 0.0364 | 0.0456 | 0.847 | > 100 | 0.0408 | 0.394 | 0.0904 | 0.302 | 0.324 | 15.8 |

Source: PubChem BioAssay (NCI)
